Values after ≈ are worked out from the molar mass of the structure shown.
Tests used:
[1] = Cytotoxicity against mouse RAW264.7 cells assessed as cell viability at 1.3 ug/ml after 3 hrs by MTT assay; assay type: cell-based; settings: read-out: Activity
[2] = Cytotoxicity against human NCI/ADR cells after 72 hrs by MTT assay; assay type: functional, cell-based; settings: NCI/ADR-RES
[3] = system: PANC-1; experiment: Cytotoxicity against human PANC1 cells after 72 hrs by MTT assay; assay type: functional, cell-based; settings: PANC-1, 72 h
[4] = system: A549; experiment: Cytotoxicity against human A549 cells after 72 hrs by MTT assay; assay type: functional, cell-based; settings: A549, 72 h
[5] = target: T1, Nitric oxide synthase, inducible (Mus musculus, UniProt P29477); experiment: Inhibition of iNOS-mediated NO production in LPS-stimulated mouse RAW264.7 cells by Griess method; assay type: cell-based
T1 sequence (P29477 whole entry): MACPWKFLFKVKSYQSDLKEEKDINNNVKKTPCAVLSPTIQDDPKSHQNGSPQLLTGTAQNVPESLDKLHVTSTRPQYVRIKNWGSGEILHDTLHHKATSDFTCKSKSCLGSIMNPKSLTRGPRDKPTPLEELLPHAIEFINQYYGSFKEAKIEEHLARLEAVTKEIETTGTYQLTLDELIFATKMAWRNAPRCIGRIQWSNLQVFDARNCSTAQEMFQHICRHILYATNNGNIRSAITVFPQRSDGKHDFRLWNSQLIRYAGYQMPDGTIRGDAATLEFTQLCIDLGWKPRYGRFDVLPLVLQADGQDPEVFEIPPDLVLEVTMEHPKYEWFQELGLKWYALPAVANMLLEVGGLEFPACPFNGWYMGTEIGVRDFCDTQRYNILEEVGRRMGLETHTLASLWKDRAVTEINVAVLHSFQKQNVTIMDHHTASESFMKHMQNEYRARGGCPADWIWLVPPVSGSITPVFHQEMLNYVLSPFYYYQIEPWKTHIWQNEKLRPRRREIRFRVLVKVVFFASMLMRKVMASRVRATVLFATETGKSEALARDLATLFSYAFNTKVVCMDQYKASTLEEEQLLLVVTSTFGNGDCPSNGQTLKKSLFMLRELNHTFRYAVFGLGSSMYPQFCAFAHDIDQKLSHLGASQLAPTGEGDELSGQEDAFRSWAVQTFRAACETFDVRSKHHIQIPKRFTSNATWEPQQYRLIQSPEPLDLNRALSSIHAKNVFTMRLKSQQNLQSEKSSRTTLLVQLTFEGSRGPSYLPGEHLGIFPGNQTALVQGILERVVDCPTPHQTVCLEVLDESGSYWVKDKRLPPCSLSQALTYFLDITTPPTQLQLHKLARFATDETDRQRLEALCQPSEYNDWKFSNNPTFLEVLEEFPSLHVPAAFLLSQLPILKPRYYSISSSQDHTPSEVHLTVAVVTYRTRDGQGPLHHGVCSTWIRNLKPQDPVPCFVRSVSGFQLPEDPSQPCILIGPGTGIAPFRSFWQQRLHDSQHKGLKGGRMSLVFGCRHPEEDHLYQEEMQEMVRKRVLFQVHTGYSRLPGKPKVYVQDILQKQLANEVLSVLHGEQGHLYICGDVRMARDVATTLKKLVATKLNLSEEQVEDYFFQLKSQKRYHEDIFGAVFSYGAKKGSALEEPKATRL

[6] = system: P388; experiment: Cytotoxicity against mouse P388 cells after 72 hrs by MTT assay; assay type: functional, cell-based; settings: P388, 72 h

## C=C1C[C@@](C)(/C=C/C=C/CCCCCCCC)OC1=O [PLAKOLIDE A]
[1]
  viability at 3 h, 1.3 ug/ml: 50%
[2]
  IC50: 3.7 µg/mL (≈ 13.4 µM)
[3]
  IC50: 3.8 µg/mL (≈ 13.7 µM)
[4]
  IC50: 5 µg/mL (≈ 18.1 µM)
[5]
  IC50: 724 nM
[6]
  IC50: 1.1 µg/mL (≈ 3.98 µM)
